How the values were obtained:
[1] = logP by HPLC on reversed-phase column (C18), EEC Directive 79/831 Annex V.A8; type: physicochemical; conditions: HPLC, reversed-phase C18, acetonitrile (0.1% formic acid)/water (0.09% formic acid) gradient
Lucilia cuprina = Lucilia cuprina test (LUCICU); type: in vivo; conditions: 20 ppm, L1 larvae, after 2 days
Description: (§1) Solvent: dimethyl sulphoxide
(§2) To produce an appropriate active ingredient formulation, 10 mg of active ingredient are mixed with 0.5 ml of dimethyl sulphoxide, and the concentrate is diluted with water to the desired concentration.
About 20 L1 larvae of the Australian sheep blowfly (Lucilia cuprina) are transferred into a test vessel containing minced horsemeat and the active ingredient preparation of the desired concentration.
After 2 days, the kill in % is determined 100% means that all the larvae have been killed; 0% means that none of the larvae have been killed.

Ctenocephalides felis = Ctenocephalides felis - in vitro contact tests with adult cat fleas; type: in vivo; conditions: 5 μg/cm^2, adult cat fleas, after 48 h
Description: For the coating of the test tubes, 9 mg of active ingredient are first dissolved in 1 ml of acetone p.a. and then diluted to the desired concentration with acetone p.a. 250 μl of the solution are distributed homogeneously on the inner walls and base of a 25 ml test tube by turning and rocking on an orbital shaker (rocking rotation at 30 rpm for 2 h). With 900 ppm active ingredient solution and internal surface area 44.7 cm^2, given homogeneous distribution, an area-based dose of 5 μg/cm^2 is achieved.
After the solvent has evaporated off, the tubes are populated with 5-10 adult cat fleas (Ctenocephalides felis), sealed with a perforated plastic lid and incubated in a horizontal position at room temperature and ambient humidity. After 48 h, efficacy is determined. To this end, the test tubes are stood upright and the fleas are knocked to the base of the tube. Fleas which remain motionless at the base or move in an uncoordinated manner are considered to be dead or moribund.
100% efficacy means that all the fleas were dead or moribund. 0% efficacy means that no fleas were harmed.

[2] = tested on: Boophilus microplus Parkhurst strain, SP-resistant; experiment: Boophilus microplus - dip test; type: in vivo; conditions: 100 ppm, adult engorged female cattle ticks, after 7 days
Description: Test animals: cattle ticks (Boophilus microplus) Parkhurst strain, SP-resistant
as §1
10 mg of active ingredient are dissolved in 0.5 ml of dimethyl sulphoxide. For the purpose of producing a suitable formulation, the active ingredient solution is diluted with water to the concentration desired in each case.
This active ingredient formulation is pipetted into tubes. 8-10 adult engorged female cattle ticks (Boophilus microplus) are transferred into a further tube with holes. The tube is immersed into the active ingredient formulation, and all the ticks are completely wetted. After the liquid has run out, the ticks are transferred on filter discs into plastic dishes and stored in a climate-controlled room.
(§3) Efficacy is assessed after 7 days by laying of fertile eggs. Eggs which are not visibly fertile are stored in a climate-controlled cabinet until the larvae hatch after about 42 days. An efficacy of 100% means that none of the ticks has laid any fertile eggs; 0% means that all the eggs are fertile.

Boophilus microplus = Boophilus microplus - injection test; type: in vivo; conditions: 20 μg/animal, injected into engorged adult female cattle ticks, after 7 days
Description: as §1
To produce an appropriate active ingredient formulation, 10 mg of active ingredient are mixed with 0.5 ml of solvent and the concentrate is diluted with solvent to the desired concentration.
1 μl of the active ingredient solution is injected into the abdomen of 5 engorged adult female cattle ticks (Boophilus microplus). The animals are transferred into dishes and kept in a climate-controlled room.
as §3

Musca domestica = Musca domestica - test; type: in vivo; conditions: 100 ppm, adult houseflies, after 2 days
Description: as §1, §2
Vessels containing a sponge treated with sugar solution and the active ingredient formulation of the desired concentration are populated with 10 adult houseflies (Musca domestica).
After 2 days, the kill in % is determined 100% means that all of the flies have been killed; 0% means that none of the flies have been killed.

Myzus persicae = Myzus persicae - spray test; type: in vivo; conditions: 100 g/ha, Chinese cabbage leaf discs, after 6 days
Description: Solvent: 78 parts by weight of acetone
(§4) • 1.5 parts by weight of dimethylformamide Emulsifier: alkylaryl polyglycol ether
(§5) To produce an appropriate active ingredient formulation, 1 part by weight of active ingredient is dissolved using the specified parts by weight of solvent and made up with water containing an emulsifier concentration of 1000 ppm until the desired concentration is attained. To produce further test concentrations, the preparation is diluted with emulsifier-containing water.
Discs of Chinese cabbage leaves (Brassica pekinensis) infested by all stages of the green peach aphid (Myzus persicae) are sprayed with an active ingredient formulation of the desired concentration.
After 6 days, efficacy in % is determined. 100% means that all the aphids have been killed; 0% means that none of the aphids have been killed.

Phaedon cochleariae = Phaedon cochleariae - spray test; type: in vivo; conditions: 100 g/ha, Chinese cabbage leaf discs, after 7 days
Description: (§6) Solvent: 78.0 parts by weight of acetone
as §4, §5
Discs of Chinese cabbage leaves (Brassica pekinensis) are sprayed with an active ingredient formulation of the desired concentration and, after drying, populated with larvae of the mustard beetle (Phaedon cochleariae).
After 7 days, efficacy in % is determined 100% means that all the beetle larvae have been killed; 0% means that no beetle larvae have been killed.

Spodoptera frugiperda = Spodoptera frugiperda - spray test; type: in vivo; conditions: 100 g/ha, maize leaf discs, after 7 days
Description: as §6, §4, §5
Leaf discs of maize (Zea mays) are sprayed with an active ingredient formulation of the desired concentration and, after drying, populated with caterpillars of the armyworm (Spodoptera frugiperda).
After 7 days, efficacy in % is determined. 100% means that all the caterpillars have been killed; 0% means that no caterpillars have been killed.

[3] = tested on: Anopheles funestus strain FUMOZ-R; experiment: Anopheles test (ANPHFU surface treatment); type: in vivo; conditions: Anopheles funestus, read-out: efficacy (mortality in %)
Description: (§7) Solvent: acetone+2000 ppm rapeseed oil methyl ester (RME)
(§8) To produce an appropriate active ingredient formulation, the active ingredient is dissolved in the solvent (2 mg/ml). The active ingredient formulation is pipetted onto a glazed tile and, after it has dried off, adult mosquitoes of the species Anopheles funestus strain FUMOZ-R (Hunt et al., Med Vet Entomol. 2005 September; 19(3):271-5) are placed onto the treated tile. The exposure time is 30 minutes.
(§9) 24 hours after contact with the treated surface, mortality in % is determined 100% means that all mosquitoes have been killed; 0% means that none of the mosquitoes have been killed.

[4] = tested on: Aedes aegypti strain MONHEIM; experiment: Aedes test (AEDSAE surface treatment); type: in vivo; conditions: read-out: efficacy (mortality in %)
Description: as §7
as §8, with “Aedes aegypti” for “Anopheles funestus”, “MONHEIM” for “FUMOZ-R (Hunt et al., Med Vet Entomol. 2005 September; 19(3):271-5)”
as §9

Which chromatographic logP [1] does the source give for `Cc1cc(C(F)(C(F)(F)F)C(F)(F)F)cc(C)c1-c1cn(-c2ccc(Cl)c(C(=O)NC3CC3)c2)nn1` [I-T48-1, 2-chloro-N-cyclopropyl-5-[4-[2,6-dimethyl-4-[1,2,2,2-tetrafluoro-1-(trifluoromethyl)ethyl]phenyl]triazol-1-yl]benzamide] here?
The chromatographic logP was 4.19.

And the “efficacy (kill in %)” value (Lucilia cuprina)?
The value was 100%.

What about the “efficacy (dead or moribund)” value (Ctenocephalides felis) of the same molecule?
Its value is 100%.

What about the “efficacy (no fertile eggs laid)” value [2] of the same molecule?
Its value is 100%.

What about the “efficacy (no fertile eggs laid)” value (Boophilus microplus) of the same molecule?
The value was 100%.

What about the “efficacy (kill in %)” value (Musca domestica) of the same molecule?
Its value is 100%.

And the “efficacy (aphids killed)” value (Myzus persicae)?
Its value is 100%.

What about the “efficacy (beetle larvae killed)” value (Phaedon cochleariae) of the same molecule?
Its value is 100%.

And the “efficacy (caterpillars killed)” value (Spodoptera frugiperda)?
Its value is 100%.

And the mortality at 100 mg/m2 [3]?
The mortality at 100 mg/m2 was 90 to 100%.

And the mortality at 20 mg/m2 [4]?
Its mortality at 20 mg/m2 is 90 to 100%.

And the mortality at 100 mg/m2 [4]?
The mortality at 100 mg/m2 was 90 to 100%.

Reference: US10836732B2, “Compounds for combating arthropods” (priority 2013, dated 2020)
